≈ marks a conversion by molar mass, not a printed value. Read-outs that look alike come from different tables or passages of the source.
Key:
PBS stability = type: physicochemical; details: 48 hours of incubation, acetonitrile recovery
Method: Stability was determined in the presence of PBS pH 7.4 with 0.1% DMSO. Each compound was prepared in duplicate on six separate plates and allowed to equilibrate at room temperature with a 250 rpm orbital shake for 48 hours. One plate was removed at each time point (0, 2, 4, 8, 24, and 48 hours). […] Additionally, to the remaining material at each time point, acetonitrile was added to force dissolution of compound (to test for recovery of compound). An aliquot of this was also analyzed by UPLC-MS.

GSK3α [1] = molecular target: T1, GSK3α (Homo sapiens (Human), UniProt P49840)
Method: GSK3β Microfluidic Mobility-Shift Assay
(§1) Reactions were terminated by the addition of 10 mM EDTA. Substrate and product were separated electrophoretically and fluorescence intensity of the substrate and product was determined by Labchip EZ Reader II (Caliper Life Sciences, MA). The kinase activity was measured as percent conversion. The reactions were performed in duplicate for each sample. […] The results were analyzed by Genedata Assay Analyzer. The percent inhibition was plotted against the compound concentration and the IC50 value was determined from the logistic dose-response curve fitting.

CDK2/CycA2 = CDK2/CycA2 (Homo sapiens (Human), UniProt P24941); test: Carna Biosciences kinase assay, CDK2/CycA2; type: biochemical; details: read-out: % Inhibition at 10 μM, CDK2/CycA2
Method: (§2) Briefly, a selection of compounds was screened against a panel of kinases at a single concentration of 10 μM. […] This was completed utilizing one of two assays depending on the kinase being examined.
(§3) Test compounds were dissolved in and diluted with dimethylsulfoxide (DMSO) to generate a 100× sample solution. These were then diluted to 4× sample solutions in assay buffer to make the final test compound solutions. Reference compounds for assay control were prepared similarly.
(§4) A solution of IMAP binding reagent (IMAP Screening Express kit; Molecular Devices) (60 μL) was added to each well and incubated for 30 minutes.
(§5) A solution of termination buffer (QuickScout Screening assist MSA; Carna Biosciences) (60 μL) was added to each well. The entire reaction mixture was then applied to a LabChip3000 system (Caliper Life Science) and the product and substrate peptide peaks were separated and quantified.
(§6) The assay utilized was identical to that of the single point inhibitory activity determination (MSA) but run in dose response. […] A solution of termination buffer (QuickScout Screening assist MSA; Carna Biosciences) (60 μL) was added to each well. The entire reaction mixture was then applied to a LabChip3000 system (Caliper Life Science) and the product and substrate peptide peaks were separated and quantified.

GSK3β [2] = molecular target: T2, GSK3β (Homo sapiens (Human), UniProt P49841); test: biochemical
T2 sequence (P49841 whole entry): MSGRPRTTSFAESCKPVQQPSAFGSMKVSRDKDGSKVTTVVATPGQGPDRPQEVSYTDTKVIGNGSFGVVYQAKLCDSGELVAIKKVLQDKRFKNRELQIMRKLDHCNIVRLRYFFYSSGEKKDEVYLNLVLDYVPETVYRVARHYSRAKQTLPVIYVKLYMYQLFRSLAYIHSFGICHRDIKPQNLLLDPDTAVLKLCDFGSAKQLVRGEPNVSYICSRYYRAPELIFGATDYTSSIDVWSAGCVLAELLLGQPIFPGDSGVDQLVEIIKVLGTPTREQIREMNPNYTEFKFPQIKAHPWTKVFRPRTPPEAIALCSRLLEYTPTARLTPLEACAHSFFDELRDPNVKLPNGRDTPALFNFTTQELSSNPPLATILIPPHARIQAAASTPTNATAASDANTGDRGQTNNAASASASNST

[3] = Plasma protein binding (equilibrium dialysis), human plasma; type: in vitro ADME
Method: Plasma protein binding was determined by equilibrium dialysis using the Rapid Equilibrium Dialysis (RED) device (Pierce Biotechnology, Rockford, Ill.) for both human and mouse plasma. Each compound was prepared in duplicate at 5 μM in plasma (0.95% acetonitrile, 0.05% DMSO) and added to one side of the membrane (200 μl) with PBS pH 7.4 added to the other side (350 μl). Compounds were incubated at 37° C. for 5 hours with a 250 rpm orbital shake.

GSK3β [4] = molecular target: T2, GSK3β
Method: GSK3β Microfluidic Mobility-Shift Assay
as §1

GSK3α [5] = molecular target: T1, GSK3α; test: biochemical
in vitro = details: mouse, mouse plasma, pH 7.4
Method: Plasma protein binding was determined by equilibrium dialysis using the Rapid Equilibrium Dialysis (RED) device (Pierce Biotechnology, Rockford, Ill.) for both human and mouse plasma. […] Compounds were incubated at 37° C. for 5 hours with a 250 rpm orbital shake.

[6] = test system: TCF/LEF reporter in HEK293-pBARL cells; test: cells
Method: (§7) HEK293-pBARL cells were derived from HEK293 cells and they stably expressed a firefly-luciferase reporter gene driven by a promoter containing 12 copies of TCF/LEF binding sequences. These cells were maintained in DMEM and supplemented with 10% FBS and 1% penicillin-streptomycin (Invitrogen). Reporter gene assays were conducted in anti-biotic free media. […] These cells also contained a renilla-luciferase reporter gene driven by the ubiquitous EF1α promoter as a control. HEK293-pBarl reporter cell lines were seeded into 384-well culture plates (Corning) at 6000 cells/well. 24 hours after plating, cells were treated overnight with relevant compounds and assayed using DualGlo assay kit (Promega). Luminescent intensities were read by EnVision (PerkinElmer, Waltham, Mass.). Firefly luciferase intensity is normalized by renilla luciferase intensity.
(§8) Cells were cultured in 384 well plates to appropriate density (40 μl total plating volume). 24 hours after plating, cells were treated with 100 nl compounds. 24 hours after incubation with compounds (48 hours after plating), assay reagents were prepared by mixing Luciferase Assay solution with Luciferase substrate and Stop & Glo solution to Stop & Glo substrate (extra reagents can be aliquoted and frozen for future use and are stable for at least one freeze/thaw cycle). […] The plate was spun down and 10 minutes were allowed for signal stabilization. Luciferase signal on the Perkin Elmer EnVision using the following parameters: Distance between plate & detector (mm)=0.2; Measurement time(s)=0.1; Glow (CT2) correction factor=0. Once the initial data is secure, a volume of Stop & Glo was added equal to each well equal to the volume of Luciferase reagent added above (If 10 μl Luciferase Reagent was added, 10 μl Stop & Glo was also added). The plate was spun down and 10 minutes were allowed for signal stabilization. The plate was read on the EnVision using the same parameters detailed above.

GSK3β [7] = molecular target: T2, GSK3β; test: biochemical; remark: listed apart in the source
[8] = M (mouse)
SH-SY5Y cells = test: Cellular toxicity in SH-SY5Y cells; details: highest testing concentration of 30 μM
Method: Biochemical characterization of these synthesized compounds were assayed against GSK3β and CDK5/p25, with CDK5/p25 serving as a counter target of GSK3β selectivity. […] The effects of these compounds on survival of SH-SY5Y pathophysiology cells were also monitored.

CDK2/CycE1 = CDK2/CycE1 (Homo sapiens (Human), UniProt P24941); test: Carna Biosciences kinase assay, CDK2/CycE1; type: biochemical; details: read-out: % Inhibition at 10 μM, CDK2/CycE1
Method: as §2, §3, §4, §5, §6

physchem = details: phosphate buffered saline (PBS) with 1% DMSO, 23 °C, pH 7.4, aqueous buffer, kinetic from dmso stock
[9] = test system: phospho-Tau (Ser199) in SH-SY5Y cells; test: Tau phosphorylation (Ser199) ELISA in SH-SY5Y cells; type: cell-based, human; details: Homo sapiens, SH-SY5Y, read-out: p-Tau (μM)
Method: Tau Phosphorylation and Total Tau Assay
SH-SY5Y cells were maintained in DMEM supplemented with 10% heat-inactivated FBS and 1% penicillin-streptomycin (Invitrogen) unless otherwise stated. ELISA kits for phospho-Tau (Ser199) and total Tau detection were purchased from Invitrogen (KHB0041, and KHB7041 respectively). Briefly, SH-SY5Y cells were seeded at 50,000 cells/200 μL/well in 96 well plates and after overnight incubation, treated with various doses of chemical compounds at 0.2 μL/well. The next day cells were washed with PBS twice before being lysed in 100 μL Lysis buffer/well. […]
A standard protocol using an immunoassay kit to quantify total Tau protein and phospho-Tau (Ser199) protein in SH-SY5Y human neuroblastoma cells was employed. […]
Well strips were warmed and inserted into the frame. […] Samples were loaded to each well that would be analyzed for total Tau, 85 μl standard diluent buffer and 15 μl cell lysate were added. To each well that will be analyzed for pTau (Ser199) 50 μl standard diluent buffer+50 μl cell lysate were added. […] Anti-total Tau was added to wells being analyzed for total Tau, anti-pTau (Ser199) was added to wells being analyzed for pTau (Ser199), and plates were tapped gently on the side to mix. […] Absorbance of each well was read at 450 nm (within 2 hours of adding stop solution).

[10] = test system: TCF/LEF reporter in HEK293-pBARL cells; details: read-out: TCF/LEF EC50
Method: as §7, §8

GSK3β [11] = molecular target: T2, GSK3β; details: read-out: IC50 ADP Glo GSK3β
panel of 311 kinases = test: Kinome-wide selectivity profile (Carna Biosciences, 311 kinases); type: biochemical
Method: as §2, §3, §4, §5

[12] = mouse plasma, 5 hours
Method: Plasma stability was determined at 37° C. at 5 hours in both human and mouse plasma. […] Compounds were incubated at 37° C. for 5 hours with a 250 rpm orbital shake with time points taken at 0 and 5 hours.

[13] = test system: β-catenin nuclear translocation in U2-OS cells; test: β-Catenin nuclear localization assay; type: cell-based
Method: β-Catenin Nuclear Localization Assay
U2-OS cells stably expressing two complimentary β-galactosidase fragments (one part on β-Catenin and the other constitutively expressed in the cell nucleus) were maintained in DMEM F12 supplemented with 10% FBS. When β-catenin translocates to the nucleus, the complimentary fragments form a complete β-galactosidase, the amount of which is then quantified by β-galactosidase activity (DiscoveRx). Cells were seeded in a 384-well CulturPlate (Perkin Elmer, Boston, Mass.) with 10,000 per well in 20 μL DMEM F12 containing 10% FCS, 100 U/ml penicillin and 100 μg/mL streptomycin. After overnight incubation at 37° C., cells were stimulated with 100 mL test compound/well and then returned to the incubator for 6 h. Cells were disrupted using 12 μL substrate-containing lysis buffer from the PathHunter Detection Kit in the formulation specified by the supplier (DiscoveRx). Plates were incubated in the dark for 1 h at room temperature before measurement of P3-galactosidase activity (luminescence) on an EnVision plate reader (PerkinElmer, Waltham, Mass.).

GSH stability = type: physicochemical; details: 48 hours
Method: Stability was determined in the presence of PBS pH […] and 50 μM glutathione with 0.1% DMSO. Each compound was prepared in duplicate on six separate plates and allowed to equilibrate at room temperature with a 250 rpm orbital shake for 48 hours. One plate was removed at each time point (0, 2, 4, 8, 24, and 48 hours). […] Additionally, to the remaining material at each time point, acetonitrile was added to force dissolution of compound (to test for recovery of compound). An aliquot of this was also analyzed by UPLC-MS.

T1 sequence (P49840 whole entry): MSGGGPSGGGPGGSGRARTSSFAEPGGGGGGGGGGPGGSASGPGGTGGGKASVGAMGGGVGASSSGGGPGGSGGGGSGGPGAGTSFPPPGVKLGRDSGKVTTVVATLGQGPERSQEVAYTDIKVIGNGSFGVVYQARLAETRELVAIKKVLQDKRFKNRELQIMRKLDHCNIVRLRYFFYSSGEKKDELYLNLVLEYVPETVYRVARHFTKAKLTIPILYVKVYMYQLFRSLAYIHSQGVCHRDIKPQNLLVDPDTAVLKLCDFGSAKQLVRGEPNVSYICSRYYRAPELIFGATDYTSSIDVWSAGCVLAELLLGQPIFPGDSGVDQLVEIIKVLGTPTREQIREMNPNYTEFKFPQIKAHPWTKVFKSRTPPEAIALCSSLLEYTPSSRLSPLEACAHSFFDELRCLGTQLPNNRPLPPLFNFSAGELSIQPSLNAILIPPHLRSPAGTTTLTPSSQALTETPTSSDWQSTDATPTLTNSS

Structure (SMILES): COc1ccccc1[C@@H]1C2=C(CC(C)(C)CC2=O)Nc2n[nH]c(C(F)(F)F)c21 [Compound 54, (R)-4-(2-methoxyphenyl)-7,7-dimethyl-3-(trifluoromethyl)-6,7,8,9-tetrahydro-2H-pyrazolo[3,4-b]quinolin-5(4H)-one]
- stability in PBS, % still present (PBS stability): more than 95%
- IC50 (GSK3α [1]): < 100 nM
- inhibition at 10 µM (CDK2/CycA2): 78.7%
- IC50 (GSK3β [2]): 12 nM
- Plasma protein binding % bound, human plasma [3]: 93%
- fraction unbound at 5 h, 5 µM ([3]; human, pH 7.4, read-out: Plasma protein binding % bound, human plasma (converted)): 0.07
- IC50 (GSK3β [4]): < 100 nM
- IC50 (GSK3α [5]): 13 nM
- fraction unbound at 5 h, 5 µM (in vitro): 0.09
- EC50 ([6]; read-out: TCF/LEF (μM)): 4.8 µM
- EC50 ([6]; read-out: TCF/LEF EC50 (μM)): 5 µM
- IC50 (GSK3β [7]): < 0.1 µM
- IC50 (GSK3β [7]; IC50 ADP Glo GSK3β (μM)): 0.02 µM
- IC50 (GSK3β [7]; IC50 against GSK3β at 7 μM ATP): 0.024 µM
- IC50 (GSK3β [7]; IC50 against GSK3β at 100 μM ATP): 0.143 µM
- IC50 (GSK3β [7]; Target IC50 (nM), GSK3β): 0.024 µM
- Microsomal Stability (M:) [8]: M: 0%
- cellular toxicity in SH-SY5Y cells (SH-SY5Y cells): no cellular toxicity
- inhibition at 10 µM (CDK2/CycE1): 73.5%
- solubility at 24 h (physchem): 85 µM (≈ 33.3 µg/mL)
- IC50 [9]: 1.03 µM
- EC50 [10]: 5.35 µM
- IC50 (GSK3β [11]): 20 nM
- % of the kinome (311 kinases) inhibited (panel of 311 kinases): 2.6%
- Plasma stability % remaining (in mice) [12]: 99%
- EC50 ([13]; Homo sapiens, U2OS, read-out: beta-Catenin Translocation (μM)): 5.28 µM
- EC50 ([13]; read-out: beta-Catenin translocation EC50): 6.97 µM
- stability in glutathione (GSH), % remaining (GSH stability): 99%

Reference: patent US9096594B2, “Kinase inhibitors and methods of use thereof” (priority 2012, dated 2015)
